Several values for one entry are separate records, joined by “and”; a condition that tells them apart may be missing. Equal values may be shown once.

Consider three compounds from publication PMC8836179, “Transport Turnover Rates for Human OCT2 and MATE1 Expressed in Chinese Hamster Ovary Cells” (International Journal of Molecular Sciences, 2022).

In assay [1] the target is T1, hOCT2 (Homo sapiens, UniProt O15244).
T1 construct: expressed in transfected cells; vector pcDNA5/FRT/V5-His TOPO
T1 sequence (O15244 1-555): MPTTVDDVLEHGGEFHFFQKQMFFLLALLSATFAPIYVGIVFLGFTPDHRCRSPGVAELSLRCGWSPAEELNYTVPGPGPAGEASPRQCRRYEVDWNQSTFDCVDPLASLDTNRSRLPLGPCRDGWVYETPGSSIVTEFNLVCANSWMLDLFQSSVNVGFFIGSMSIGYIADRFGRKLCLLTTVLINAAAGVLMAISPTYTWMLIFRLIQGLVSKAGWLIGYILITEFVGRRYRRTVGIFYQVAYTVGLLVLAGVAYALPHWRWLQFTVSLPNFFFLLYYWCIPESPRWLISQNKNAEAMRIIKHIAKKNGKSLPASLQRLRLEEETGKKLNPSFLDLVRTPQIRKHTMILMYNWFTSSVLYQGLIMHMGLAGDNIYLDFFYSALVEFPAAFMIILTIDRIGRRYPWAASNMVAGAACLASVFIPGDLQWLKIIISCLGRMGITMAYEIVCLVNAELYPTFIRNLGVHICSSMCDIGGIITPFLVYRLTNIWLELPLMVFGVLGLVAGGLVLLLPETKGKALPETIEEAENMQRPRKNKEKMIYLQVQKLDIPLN
The assay is described as follows: OCT2-mediated substrate uptake kinetics and turnover rate in stably expressing CHO cells. In kind it is in vitro ADME. Particulars: for Jmax (maximum rate of mediated substrate transport) / Kt (Ktapp, apparent Michaelis constant): CHO cells stably expressing OCT2, 60-s uptakes, pH 7.4, mean ± SD; for TOR (turnover rate): Jmax divided by cell surface OCT2 abundance (154 ± 70.7 fmol cm^−2), CHO cells. How it is done: (§1) The calculation of TOR values involved dividing the maximal rates of substrate transport (Jmax) by the number of cell-surface-expressed transporters (Table 1).
(§2) Chinese hamster ovary (CHO) cells with a single integrated Flp-In recombination site were obtained from Invitrogen (Carlsbad, CA, USA). […] Cells were passaged every 3–4 days and maintained at 37 °C in a humidified environment with 5% CO2. Continued expression of MATE1 and OCT2 in these cell lines was maintained using hygromycin (200 µg/mL; Invitrogen, Carlsbad, CA) selection pressure; continued expression of the Flp-In recombination site in wild-type (WT; non-transporter expressing) CHO cells was maintained using Zeocin (100 µg/mL; Invitrogen) selection pressure. When seeded into 96-well plates (Greiner; VWR Intl., Arlington Heights, IL, USA) for transport assays, cells were grown to confluence in antibiotic-free medium.
(§3) Cells were seeded in 96 well plates with 200 µL of cell media containing 550,000 cells/mL or 275,000 cells/mL, and experiments were performed 24 or 48 h later, respectively. To begin an experiment, media was aspirated and the wells were washed for three cycles over 12 s with 300 µL of room temperature (~23 °C) Waymouth Buffer (WB; 135 mM NaCl, 13 mM HEPES, 2.5 mM CaCl2·2H2O, 1.2 mM MgCl2, 0.8 mM MgSO4·7H2O, 5 mM KCl, and 28 mM D-glucose; pH 7.4) using an automatic microplate washer (Model 405, BioTek, Winooski, VT, USA). For studies of OCT2-mediated transport, uptake was initiated by addition of 60 µL of WB containing radiolabeled substrate and other compounds, as needed. For studies of MATE1-mediated transport, the cells (MATE1-expressing and control cells) were exposed to an ammonia pulse method that we previously used to elevate cytoplasmic [H^+] to a level (~6.0 pH; [61]) that effectively saturates the cytoplasmic face of the exchanger with H^+ [51]. Briefly, cells were preincubated for 20 min (room temp) in buffer containing 20 mM NH4Cl (the first step in establishing an outwardly-directed H^+ gradient; [60]). Plates were then placed in the automatic fluid aspirator/dispenser and rinsed/aspirated three times with room temperature WB (pH 7.4), and transport was initiated by aspirating this medium and replacing it with 60 µL of an NH4Cl-free medium containing labeled substrate, thereby, establishing a trans H^+ gradient, qualitatively similar to the conditions that support MATE1-mediated transport in renal proximal tubules. For all experiments, transport buffers were added using a VIAFLO 96-well multichannel pipet (Integra Biosciences, Hudson, NH, USA). At specified time intervals, transport was terminated by rinsing with three cycles of cold WB (300 µL). Following rinsing and final aspiration, 200 µL of scintillation cocktail (Microscint 20, Perkin-Elmer, Waltham, MA, USA) was added to each well. The plates were sealed (Topseal-A, Perkin Elmer), and after sitting for at least two hours, accumulated radioactivity was determined in a six-channel multiwell scintillation counter (Wallac Trilux 1450 Microbeta, Perkin-Elmer).
(§4) The method described here is a minor modification of that described by Pelis et al..

In assay [2] the target is T2, hMATE1 (Homo sapiens, UniProt Q96FL8).
T2 construct: expressed in transfected cells; vector pcDNA5/FRT/V5-His TOPO
T2 sequence (Q96FL8 1-570): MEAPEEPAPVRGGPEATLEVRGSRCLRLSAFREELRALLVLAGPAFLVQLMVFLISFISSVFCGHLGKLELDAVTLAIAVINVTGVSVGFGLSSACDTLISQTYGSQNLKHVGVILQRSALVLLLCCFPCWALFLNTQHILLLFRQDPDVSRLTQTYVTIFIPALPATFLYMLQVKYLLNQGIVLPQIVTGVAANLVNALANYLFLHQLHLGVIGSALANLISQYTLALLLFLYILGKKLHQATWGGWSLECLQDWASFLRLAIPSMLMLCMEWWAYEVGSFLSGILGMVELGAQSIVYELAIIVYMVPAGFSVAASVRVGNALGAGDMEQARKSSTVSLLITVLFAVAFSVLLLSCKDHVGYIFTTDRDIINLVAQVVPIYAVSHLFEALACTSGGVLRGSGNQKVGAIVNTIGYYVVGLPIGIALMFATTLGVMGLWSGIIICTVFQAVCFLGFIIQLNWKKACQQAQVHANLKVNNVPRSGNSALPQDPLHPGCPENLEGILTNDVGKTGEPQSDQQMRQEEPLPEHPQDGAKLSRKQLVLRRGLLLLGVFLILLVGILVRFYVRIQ
Briefly: MATE1-mediated substrate uptake kinetics and turnover rate in stably expressing CHO cells. In kind it is in vitro ADME. Particulars: for Jmax (maximum rate of mediated substrate transport) / Kt (Ktapp, apparent Michaelis constant): CHO cells stably expressing MATE1, 60-s uptakes, outwardly-directed H+ gradient (ammonia pulse), mean ± SD; for TOR (turnover rate): Jmax divided by cell surface MATE1 abundance (21.9 ± 18.1 fmol cm^−2), CHO cells. The protocol:
as §1, §2, §3, §4

As to `CN(C)C(=N)N=C(N)N` [Metformin, metformin], the “Jmax (maximum rate of mediated substrate transport)” value (“Jmax” for short) was 509 ± 39 pmol cm^−2 min^−1 and 509 ± 39.0 (n = 2) pmol cm^−2 min^−1 in assay [1]; 509 ± 39 pmol cm^−2 min^−1 and 509 pmol cm^−2 min^−1 in assay [1] (listed as metformin); 1802 ± 1147 pmol cm^−2 min^−1 and 1802 ± 1147 (n = 4) pmol cm^−2 min^−1 in assay [2]; 1802 ± 1147 pmol cm^−2 min^−1 in assay [2] (listed as metformin). Besides, the “Kt (Ktapp, apparent Michaelis constant)” value in assay [1] is 427 ± 48 µM and 427 ± 48.0 µM; in assay [1] (listed as metformin), 427 ± 48 µM; in assay [2], 664 ± 302 µM. Also, the results for the “TOR (turnover rate)” value in assay [1], in assay [2] and in assay [2] (listed as metformin) were 70 s⁻¹, 1894 ± 1282 s⁻¹ and ~ 1900 s^−1, respectively.
With `C[n+]1ccc(-c2ccccc2)cc1` [MPP, 1-Methyl-4-phenylpyridinium], in assay [1], the “Jmax” value is 59 ± 6.6 pmol cm^−2 min^−1 and 58.5 ± 6.6 pmol cm^−2 min^−1 and 58 pmol cm^−2 min^−1 and 58.5 ± 6.6 (n = 3) pmol cm^−2 min^−1; the “Kt (Ktapp, apparent Michaelis constant)” value amounted to 17.5 ± 2.1 µM; the “TOR (turnover rate)” value amounted to 7.1 ± 2.4 s⁻¹. For the same compound, in assay [2], the “Jmax” value is 241 ± 85 pmol cm^−2 min^−1 and 241 ± 84.9 (n = 4) pmol cm^−2 min^−1; the “Kt (Ktapp, apparent Michaelis constant)” value was 66 ± 6.8 µM; the “TOR (turnover rate)” value was 297 ± 201 s⁻¹.
For `CC(C)NCC(O)COc1ccc(CC(N)=O)cc1` (stereo not drawn) [Atenolol, atenolol], the “Kt (Ktapp, apparent Michaelis constant)” value in assay [2] is 354 ± 96 µM and 354 ± 95.9 µM; in assay [2] (listed as atenolol), 354 ± 96 µM.
